Entries after “also recorded” stand apart in the source; their conditions may differ.
Tests used:
CD8+ lymphocytes = test: FACS analysis of circulating CD8+ lymphocytes in whole blood of SOD1 mice; type: in vivo, mouse; details: for CD8+ cells in whole blood: 4 hours after third dose, control approximately 5%
Experimental: FIG. 3A is a fluorescent activated cell sorting (FACS) analysis showing the reduction of CD8+ lymphocytes in the circulation of male SOD1 mice that results from fingolimod treatment. A high dose of fingolimod (IP Loading Dose 2.5 mg/kg, Maintenance Dose 1.8 mg/kg q7d), a low dose of fingolimod (IP Loading Dose 0.44 mg/kg, Maintenance Dose 0.32 mg/kg) and a vehicle control group were tested over 14 days. Tissues were harvested 4 hours after the third dose. This time point was selected to best characterize the behavior of lymphocytes when circulating levels of the drug were near peak.
The following dosage regimen was used to determine the dose dependent effects of fingolimod in SOD1 mice: • Cohorts: • 1) SOD1 Fingolimod Treated “High Dose” (Load 2.5 mg/kg, 1.8 mg/kg Oral q7d) • 4 hour post final dose harvest • 7 day post final dose harvest • 2) SOD1 Fingolimod Treated “Low Dose” (Load 0.44 mg/kg, 0.32 mg/kg Oral q7d) • 4 hour post final dose harvest • 7 day post final dose harvest • 3) SOD1 Vehicle Control • 4 hour post final dose harvest • 7 day post final dose harvest
The predicted plasma fingolimod load for both the high dose and the low dose regimes were determined, see FIGS. 2A and 2B. Tissues were harvested 4 hours after the third fingolimod dose. This time point was selected to best characterize the behavior of lymphocytes in animals treated with fingolimod when circulating levels of the drug are near peak concentration.

[1] = tested on: lymphocytes, dendritic cells, regulatory T cells; details: cited from earlier work
[2] = whole blood, vs vehicle control

CCCCCCCCc1ccc(CCC(N)(CO)CO)cc1 [fingolimod, 2-amino-2-(4-octylphenethyl)propane-1,3-diol]
circulating CD8 positive cells in whole / peripheral blood (in words) (CD8+ lymphocytes; SOD1 animals, high and low dose groups): fewer; also recorded: transiently depletes | CD8+ cells in whole blood (CD8+ lymphocytes; high dose (load 2.5 mg/kg, 1.8 mg/kg q7d)): less than 2% | CD8+ cells in whole blood (CD8+ lymphocytes; low dose (load 0.44 mg/kg, 0.32 mg/kg q7d)): less than 2% | reduction in CD8+ cells (CD8+ lymphocytes; [2]): > 66% | reduction in CD8+ cells (fold) (CD8+ lymphocytes; [2]): over three-fold | circulating dendritic cells ([1]; Lan 2005, 2008): large increase | effect on lymphocyte population ([1]; Tsunemi 2010 and Zemann 2006): lymphopenia | regulatory T cells ([1]; Zhang et al. 2009): increase

— patent US8946301B2, “Targeting of T-lymphocytes to treat amyotrophic lateral sclerosis” (ALS Therapy Development Institute, priority 2011, dated 2015)
